Assay [1] deals with T1, Aurora kinase A (Homo sapiens) (UniProt O14965).
T1 sequence (whole entry): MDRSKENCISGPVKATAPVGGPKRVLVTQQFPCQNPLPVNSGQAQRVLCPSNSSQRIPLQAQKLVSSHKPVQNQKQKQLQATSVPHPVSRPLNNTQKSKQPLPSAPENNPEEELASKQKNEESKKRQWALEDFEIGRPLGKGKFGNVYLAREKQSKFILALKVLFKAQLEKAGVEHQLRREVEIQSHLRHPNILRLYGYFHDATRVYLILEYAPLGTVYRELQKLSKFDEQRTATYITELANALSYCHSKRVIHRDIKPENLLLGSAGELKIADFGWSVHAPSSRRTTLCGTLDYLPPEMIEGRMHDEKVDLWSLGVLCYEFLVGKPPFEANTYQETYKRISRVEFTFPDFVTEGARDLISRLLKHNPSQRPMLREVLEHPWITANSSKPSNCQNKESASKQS
Briefly: Inhibition of Aurora A kinase at 10 uM.

The target in assay [2] is T1, Aurora kinase A (Homo sapiens). Kind of assay: Inhibition of Aurora A kinase at 50 uM.
In assay [3] the target is T2, Aurora kinase A (Homo sapiens, UniProt O14965).
T2 sequence (O14965 whole entry): T1 sequence (whole entry)
Briefly: Inhibition of Aurora A kinase.

Assay [4] addresses T3, Aurora kinase C (Homo sapiens, UniProt Q9UQB9).
T3 sequence (Q9UQB9 whole entry): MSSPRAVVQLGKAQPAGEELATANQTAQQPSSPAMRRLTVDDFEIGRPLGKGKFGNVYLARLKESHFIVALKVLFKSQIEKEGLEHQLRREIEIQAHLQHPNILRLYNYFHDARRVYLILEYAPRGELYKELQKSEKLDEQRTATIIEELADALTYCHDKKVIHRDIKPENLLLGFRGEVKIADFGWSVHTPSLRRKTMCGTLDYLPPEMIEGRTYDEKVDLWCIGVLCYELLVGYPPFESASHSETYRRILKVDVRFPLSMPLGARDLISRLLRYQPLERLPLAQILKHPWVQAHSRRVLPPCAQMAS
Kind of assay: Inhibition of Aurora C kinase.

As a reminder, the inhibition is the drop in the measured response relative to a control, in per cent. As to `O=C1c2[nH]c3cc(-c4ccco4)nn3c(=O)c2CN1c1ccccc1`, the inhibition in assay [1] was 7.6%; in assay [2], 73.7%.
In the case of `O=C1c2[nH]c3cc(-c4ccco4)nn3c(=O)c2CN1CCN1CCOCC1`, the figures for the inhibition in assay [1] and in assay [2] were 0.9% and 10.7%, respectively.
For `O=C1c2[nH]c3cc(-c4ccco4)nn3c(=O)c2CN1CCCc1ccccc1`, the inhibition in assay [1] was determined as 16.4%; in assay [2], 84.4%.
As usually defined, the IC50 is the concentration that gives 50% inhibition. A lower IC50 goes with higher potency. Turning to `CC(=O)Nc1cccc(CN2Cc3c([nH]c4cc(-c5ccco5)nn4c3=O)C2=O)c1`, the IC50 in assay [3] stood at 18.3 µM. The inhibition in assay [1] turned out to be 35.8%; in assay [2], 87.8%.
For the molecule `O=C1c2[nH]c3cc(-c4ccco4)nn3c(=O)c2CN1CCc1ccccc1`, the inhibition in assay [1] amounted to 19.6%; in assay [2] it was 83.9%.
With `O=C1c2nc3cc(-c4ccccc4)nn3c(O)c2CN1Cc1ccccc1`, the inhibition in assay [1] was 25.9%; in assay [2], 47.2%.
For `Cc1cc2[nH]c3c(c(=O)n2n1)CN(Cc1ccccc1)C3=O`, the inhibition was 1.8% in assay [1] and 20.8% in assay [2].
Regarding `O=C1c2[nH]c3cc(-c4ccco4)nn3c(=O)c2CN1Cc1ccccn1`, the inhibition in assay [1] amounted to 21.6%; in assay [2], 79.2%.
In assay [3], `COc1ccc(CN2Cc3c([nH]c4cc(-c5ccco5)nn4c3=O)C2=O)cc1` had an IC50 of 8 µM. For the same molecule, the inhibition in assay [1] worked out at 42.4%; in assay [2], 88.2%.
With `COc1ccccc1CN1Cc2c([nH]c3cc(-c4ccco4)nn3c2=O)C1=O`, the IC50 in assay [3] is 5.6 µM. Moreover, the inhibition was found to be 51.6% in assay [1] and 95.1% in assay [2].
On to `O=C1c2[nH]c3cc(-c4ccco4)nn3c(=O)c2CN1Cc1ccc(F)cc1`, for which the inhibition came to 24% in assay [1] and 89.8% in assay [2].
As usually defined, the Ki is the equilibrium dissociation constant of an inhibitor or competing ligand from its target. Regarding `CO[C@@H](C(=O)N1Cc2n[nH]c(NC(=O)c3ccc(N4CCN(C)CC4)cc3)c2C1)c1ccccc1` [DANUSERTIB], the Ki in assay [4] was 0.061 µM.
Consider `O=C1c2c(c(=O)n3nc(-c4ccco4)cc3n2CCN2CCOCC2)CN1Cc1ccccc1`, for which the inhibition in assay [1] stood at 0%; in assay [2], 1.1%.
For `O=C1c2nc3cc(-c4ccco4)nn3c(O)c2CN1Cc1ccccc1`, in assay [3], half-maximal inhibition (IC50) was put at 15.1 µM. Moreover, the inhibition in assay [1] amounted to 35.6%; in assay [2], 90.2%.
`O=C1c2[nH]c3cc(-c4ccco4)nn3c(=O)c2CN1Cc1cccc2ccccc12`: the values for the inhibition in assay [1] and in assay [2] were 30.4% and 79.9%, respectively.
For the molecule `O=C1c2[nH]c3cc(-c4ccco4)nn3c(=O)c2CN1Cc1ccc2c(c1)OCO2`, the inhibition in assay [1] is 12.3%; in assay [2] it was 75.2%.
Consider `O=C1c2[nH]c3cc(-c4cccs4)nn3c(=O)c2CN1Cc1ccccc1`, for which the inhibition in assay [1] worked out at 29.4%; in assay [2], 72.3%.
Take `Cn1c2c(c(=O)n3nc(-c4ccco4)cc13)CN(Cc1ccccc1)C2=O`: the results for the inhibition in assay [1] and in assay [2] were 2.3% and 3.4%, respectively.
For the molecule `COc1ccc(CN2Cc3c([nH]c4cc(-c5ccco5)nn4c3=O)C2=O)cc1OC`, the results for the inhibition in assay [1] and in assay [2] were 7.8% and 70.8%, respectively.
As to `O=C1c2[nH]c3ccnn3c(=O)c2CN1Cc1ccccc1`, the figures for the inhibition in assay [1] and in assay [2] were 1.6% and 14.5%, respectively.
Regarding `COc1cc(CN2Cc3c([nH]c4cc(-c5ccco5)nn4c3=O)C2=O)cc(OC)c1`, the inhibition in assay [1] was determined as 10.1%; in assay [2], 75.3%.
Take `COc1cccc(CN2Cc3c([nH]c4cc(-c5ccco5)nn4c3=O)C2=O)c1`: 15.2 µM corresponded to half-maximal inhibition in assay [3] (IC50). Besides, the inhibition is 29.3% in assay [1] and 90% in assay [2].
